Source: article PMC12095047, “Transport of phenoxyacetic acid herbicides by PIN-FORMED auxin transporters” (Nature Plants, 2025)
Values joined by “and” are separate entries in the source; they are usually repeats but may differ in a detail not shown here. Equal values may be shown once. Read-outs that look alike come from different tables or passages of the source.

Assays:
[1] = biological target: T1, A. thaliana PIN8 (Arabidopsis thaliana, UniProt Q9LFP6); test: SSM electrophysiology, peak current response on PIN8 proteoliposomes; assay type: biochemical; settings: for Peak current: individual sensors
T1 construct: made in house
T1 sequence (Q9LFP6 1-367): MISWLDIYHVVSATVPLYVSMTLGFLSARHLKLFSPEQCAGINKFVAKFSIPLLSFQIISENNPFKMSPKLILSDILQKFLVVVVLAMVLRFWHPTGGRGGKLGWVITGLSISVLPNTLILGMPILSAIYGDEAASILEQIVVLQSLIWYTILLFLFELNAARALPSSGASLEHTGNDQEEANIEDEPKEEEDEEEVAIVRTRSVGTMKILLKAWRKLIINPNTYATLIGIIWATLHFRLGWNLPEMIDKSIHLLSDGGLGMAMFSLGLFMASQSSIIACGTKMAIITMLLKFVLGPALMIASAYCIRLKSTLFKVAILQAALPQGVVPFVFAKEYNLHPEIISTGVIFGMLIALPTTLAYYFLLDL
Procedure: (§1) SSM, using a SURFE2R N1 from Nanion Technologies, was conducted as described. In brief, soy polar lipid mix (38% phosphatidyl choline, 30% phosphatidyl ethanolamine, 18% phosphatidyl inositol, 7% phosphatidic acid and 7% other soy lipids) and 1-palmitoyl-2-oleoyl-sn-glycero-3-phosphocholin were purchased from Avanti. Liposomes were prepared in Ringer solution without Ca^2+ (115 mM NaCl, 2.5 mM KCl, 1 mM NaHCO3, 10 mM HEPES pH7.4, 1 mM MgCl2) and homogenized using a Lipsofast (Avestin) with a […]. Triton X-100 was added to the liposomes to a final concentration of 1% (v/v). Protein was added to liposomes to a calculated lipid-to-protein ratio (LPR) of 10 unless stated otherwise. The detergent was removed using 400 mg ml^−1 Bio Beads (BioRad) overnight at 4 °C in a rotary shaker. Proteoliposomes were frozen in liquid nitrogen and kept at −80 °C until use. Proteoliposomes were diluted 1:5 in Ringer solution without Ca^2+, sonicated five times and then applied to the sensors by centrifugation (30 min, 3,000 g, 4 °C). Non-activating buffer was Ringer solution without Ca^2+ as described unless specified otherwise, and activating buffer contained the substrate of interest. In most instances we used a single-solution exchange experiment. In this case proteoliposomes, immobilized on the supported membrane, are kept in non-activating buffer as specified. At the beginning of the experiment the non-activating buffer is replaced with fresh identical non-activating buffer, and after 1 s, activating buffer (same buffer containing substrate) is added. After another second, the buffer is replaced with non-activating buffer again. Current response is recorded throughout the entire 3 s. For competition or inhibition, the respective compound was present in non-activating and activating solutions. Each experiment was performed on at least two individual sensors. On each sensor each measurement consists of three technical replicates where the mean is calculated. KD values were determined as described previously. Briefly, the binding current induced by 100 µM NPA was recorded in the presence of different concentrations of the substrate under investigation ranging between 0 µM and 1,000 µM present in the activating solution and the non-activating solution (Extended Data Fig. 5b). […] The maximum peak current was then plotted as a function of the concentration of the substrate under investigation and plotted against the degree of inhibition and fitted with a one-site binding model using GraphPad Prism V10.4.1 The half maximal concentration corresponds to the KD of the substrate under investigation.

[2] = biological target: T2, PIN8 (Arabidopsis thaliana, UniProt Q9LFP6); test: SSM electrophysiology, KD by inhibition of the NPA binding current
T2 construct: made in house
T2 sequence (Q9LFP6 1-367): T1 sequence (Q9LFP6 1-367)
Procedure: as §1

[3] = biological target: T3, PIN8 I51Y (Arabidopsis thaliana, UniProt Q9LFP6, I51Y); assay type: biochemical; settings: Michaelis–Menten fit
T3 construct: made in house
Procedure: as §1
(§2) The protocol for expression and purification of AtPIN8 protein (Uniprot: Q9LFP6) in lauryl maltose neopentyl glycol was described previously. All point mutants were generated using Q5 Site-Directed mutagenesis kit (New England Biolabs). The C-flat Holey Carbon grids (CF-1.2/1.3, Cu-300 mesh) were glow-discharged for 45 s at 15 mA in a GloQube Plus (Quorum). […] After 1 h of incubation on ice, the sample was centrifuged at 16,000 g for 15 min before blotting to remove precipitation. A drop of 4 µl of each sample was applied to the glow-discharged grids, blotted with a Vitrobot Mark IV (ThermoFisher Scientific) using the following settings (temperature 4 °C, 100% humidity, blot time of 4 s, blot force −1) and vitrified in liquid ethane.

[4] = biological target: T4, PIN8 S146A (Arabidopsis thaliana, UniProt Q9LFP6, S146A); assay type: biochemical; settings: for Peak current: S146A, individual sensors
T4 construct: made in house
Procedure: as §1, §2

[5] = biological target: T5, PIN8 S266A (Arabidopsis thaliana, UniProt Q9LFP6, S266A); assay type: biochemical; settings: PIN8 S266A, Michaelis–Menten fit
T5 construct: made in house
Procedure: as §1, §2

[6] = biological target: T6, PIN8 S55A (Arabidopsis thaliana, UniProt Q9LFP6, S55A); assay type: biochemical; settings: for Peak current: S55A, individual sensors
T6 construct: made in house
Procedure: as §1, §2

[7] = biological target: T7, PIN8 N117A (Arabidopsis thaliana, UniProt Q9LFP6, N117A); test: SSM electrophysiology peak current, PIN8 N117A proteoliposomes; assay type: biochemical; settings: for Relative Peak Current of WT (%): Substrate 4-CPA, replicates
T7 construct: made in house
Procedure: as §1, §2

[8] = biological target: T8, wild-type PIN8 proteoliposomes (Arabidopsis thaliana, UniProt Q9LFP6); test: SSM electrophysiology, peak width (FWHM) of current response at LPR10 and LPR50; assay type: biochemical; settings: for Rel. FWHM (% of LPR10): replicates
T8 construct: made in house
T8 sequence (Q9LFP6 1-367): T1 sequence (Q9LFP6 1-367)
Procedure: as §1

[9] = WT PIN8 proteoliposomes, Michaelis–Menten fit
[10] = read-out: EC50 of peak current response

T4 sequence (Q9LFP6 whole entry S146A): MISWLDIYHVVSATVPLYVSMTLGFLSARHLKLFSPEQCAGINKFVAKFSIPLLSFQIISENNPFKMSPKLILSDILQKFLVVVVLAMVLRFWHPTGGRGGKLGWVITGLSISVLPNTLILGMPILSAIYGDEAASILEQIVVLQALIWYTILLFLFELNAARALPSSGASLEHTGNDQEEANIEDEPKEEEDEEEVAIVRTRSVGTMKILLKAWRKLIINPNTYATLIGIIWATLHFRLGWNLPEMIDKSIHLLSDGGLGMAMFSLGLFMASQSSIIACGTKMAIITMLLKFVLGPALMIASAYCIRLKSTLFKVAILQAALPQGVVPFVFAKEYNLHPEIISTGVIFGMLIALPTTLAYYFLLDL
T7 sequence (Q9LFP6 whole entry N117A): as the sequence (Q9LFP6 whole entry S146A) above, with N117A, A146S counted along it
T6 sequence (Q9LFP6 whole entry S55A): as the sequence (Q9LFP6 whole entry S146A) above, with S55A, A146S counted along it
T3 sequence (Q9LFP6 whole entry I51Y): as the sequence (Q9LFP6 whole entry S146A) above, with I51Y, A146S counted along it
T5 sequence (Q9LFP6 whole entry S266A): as the sequence (Q9LFP6 whole entry S146A) above, with A146S, S266A counted along it

Structure (SMILES): O=C(O)COc1ccc(Cl)cc1 [4-CPA, 4-chlorophenoxyacetic acid]
- Peak current ([1]; 2 mM 4-CPA, absence of NPA): 6.735 nA and 9.149 nA
- Peak current ([1]; 2 mM 4-CPA, presence of 20 µM NPA): 3.357 nA
- EC50 [1, 9]: 800 ± 200 µM
- maximal current Imax [1, 9]: 12 ± 2 nA
- Peak current ([1]; WT, 5 µM substrate): 0.07132 nA and 0.09263 nA and 0.01805 nA
- Peak current ([1]; WT, 20 µM substrate): 0.2459 nA and 0.3985 nA and 0.3482 nA
- Peak current ([1]; WT, 50 µM substrate): 0.634 nA and 0.9337 nA and 0.8708 nA
- Peak current ([1]; WT, 100 µM substrate): 1.233 nA and 1.738 nA and 1.591 nA
- Peak current ([1]; WT, 500 µM substrate): 3.698 nA and 5.58 nA and 4.779 nA
- Peak current ([1]; WT, 1000 µM substrate): 5.355 nA and 8.269 nA and 6.9634 nA
- Peak current ([1]; WT, 2000 µM substrate): 7.157 nA and 9.571 nA and 9.556 nA
- inhibition at 5 µM ([2]; 5 µM substrate, 100 µM NPA, individual sensors, read-out: Rel. Inhibition of NPA peak currents): 3.03%
- inhibition at 20 µM ([2]; 20 µM substrate, 100 µM NPA, individual sensors, read-out: Rel. Inhibition of NPA peak currents): 9.7%
- inhibition at 50 µM ([2]; 50 µM substrate, 100 µM NPA, individual sensors, read-out: Rel. Inhibition of NPA peak currents): 16%
- inhibition at 100 µM ([2]; 100 µM substrate, 100 µM NPA, individual sensors, read-out: Rel. Inhibition of NPA peak currents): 24.7%
- inhibition at 500 µM ([2]; 500 µM substrate, 100 µM NPA, individual sensors, read-out: Rel. Inhibition of NPA peak currents): 58.6%
- inhibition at 1000 µM ([2]; 1000 µM substrate, 100 µM NPA, individual sensors, read-out: Rel. Inhibition of NPA peak currents): 73.5%
- inhibition at 2000 µM ([2]; 2000 µM substrate, 100 µM NPA, individual sensors, read-out: Rel. Inhibition of NPA peak currents): 82.1%
- inhibition at 5000 µM ([2]; 5000 µM substrate, 100 µM NPA, individual sensors, read-out: Rel. Inhibition of NPA peak currents): 96.6%
- lower binding affinity compared to IAA ([2]; KD compared to IAA): ~ 8 fold
- Kd ([2]; Peak current, sheet F2A (Fig. 2a, KD of substrate binding), individual sensors): 319 µM and 330 µM and 262 µM
- Imax [3]: 3 ± 0.8 nA
- EC50 [3, 10]: 1.04 ± 0.252 mM
- Imax ([4]; PIN8 S146A, Michaelis–Menten fit): 8 ± 2 nA
- Peak current ([4]; 5 µM substrate): 0.16 nA and 0.306 nA and 0.183 nA and 0.211 nA
- Peak current ([4]; 20 µM substrate): 0.62 nA and 0.288 nA and 0.616 nA
- Peak current ([4]; 50 µM substrate): 1.139 nA and 1.066 nA and 1.161 nA and 1.319 nA
- Peak current ([4]; 100 µM substrate): 1.866 nA and 1.352 nA and 1.859 nA and 2.228 nA
- Peak current ([4]; 500 µM substrate): 4.245 nA and 2.76 nA and 4.229 nA and 5.107 nA
- Peak current ([4]; 1000 µM substrate): 5.47 nA and 3.518 nA and 5.371 nA and 6.513 nA
- Peak current ([4]; 2000 µM substrate): 6.809 nA and 4.912 nA and 6.602 nA and 8.134 nA
- Imax [5]: 7 ± 2 nA
- EC50 [5, 10]: 2.1 ± 0.29 mM
- Imax ([6]; PIN8 S55A, Michaelis–Menten fit): 11 ± 1 nA
- EC50 ([6]; PIN8 S55A, Michaelis–Menten fit, read-out: EC50 of peak current response): 328 ± 15 µM
- Peak current ([6]; 5 µM substrate): 0.2701 nA and 0.2897 nA and 0.3406 nA
- Peak current ([6]; 20 µM substrate): 0.9459 nA and 0.8941 nA and 1.017 nA
- Peak current ([6]; 50 µM substrate): 1.817 nA and 1.664 nA and 1.992 nA
- Peak current ([6]; 100 µM substrate): 2.935 nA and 2.612 nA and 3.1231 nA
- Peak current ([6]; 500 µM substrate): 6.5808 nA and 5.777 nA and 6.881 nA
- Peak current ([6]; 1000 µM substrate): 8.474 nA and 7.36 nA and 8.719 nA
- Peak current ([6]; 2000 µM substrate): 10.4298 nA and 8.998 nA and 10.8546 nA
- current response / function of PIN8 N117A ([7]; N117A mutation): abolishes the current response
- Relative Peak Current of WT (%) ([7]; 100µM): 1.438% and 7.087% and 13.2919% and 50.142%
- Relative Peak Current of WT (%) ([7]; 2mM): 17.5134% and 20.2019% and 18.4651% and 19.2453%
- Rel. FWHM (% of LPR10) ([8]; LPR10): 1.033 % of LPR10 and 0.9836 % of LPR10 (2×)
- peak width of SSM-based current response as a function of lipid-to-protein ratio (LPR) ([8]; LPR10 versus LPR50): vary with lipid-to-protein ratio (LPR)
- Rel. FWHM (% of LPR10) ([8]; LPR50): 1.475 % of LPR10 (2×) and 1.328 % of LPR10 and 1.377 % of LPR10
